Laboratory results published in PMC8232644, “Self-Supporting Hydrogels Based on Fmoc-Derivatized Cationic Hexapeptides for Potential Biomedical Applications” (Biomedicines, 2021).
Values after ≈ are worked out from the molar mass of the structure shown. Residues, ends and D or L forms follow the SMILES beside them. *: point of attachment. Fmoc = O=C(OCC1c2ccccc2-c2ccccc21)*

Columns and labels:
[1] = In vitro hydrogel degradation in Ringer's solution; assay type: physicochemical; conditions: hydrogel with 1.5 mL Ringer’s solution at 37 °C for 20 days (method: 40 days); ΔW = (Wo − Wt)/Wo
Description: In vitro hydrogel degradation assay was performed by adding a fixed amount (1.5 mL) of Ringer’s solution (12.9 mg of NaCl, 0.45 mg of KCl and 0.48 mg of CaCl2) to the preformed hydrogels and by placing them in an oven at 37 °C for 40 days. Hydrogels were weighed before the addition of the Ringer’s solution (Wo) and after its removal (Wt). The weight loss ratio (ΔW) was calculated as percentage according to Equation (2) ΔW = ((Wo − Wt))/Wo %(2)
As potential tissue engineering matrices, PHG materials would be directly exposed to biological fluids. According to this consideration, the degradation test was performed to evaluate the matrices stability in an in vivo mimetic environment. The biological setting was mimed, incubating the hydrogels with Ringer’s solution at 37 °C for 20 days. The stability, reported as ΔW, calculated using Equation (2), was estimated as weight loss. ΔW values determined for Fmoc-K1, Fmoc-K2, and Fmoc-K3 were 43.2, 39.7, and 41.8%, respectively. In comparison to other FmocFF peptide-based hydrogels, all tested samples undergo faster and more remarkable degradation. This behavior is probably ascribable to the less rigid nature of Fmoc-K HGs. As an alternative, it can also be hypothesized that the large amount of salt in the Ringer’s solution could improve the solubility of K peptides and, in turn, accelerate the loss of 3D-organization of the matrix. It is worth it to note that an efficient in vivo degradation by biological fluids of hydrogels in their single components could allow achieving a rapid excretion of the matrix, which means a high biocompatibility.

[2] = Water solubility of peptides; assay type: physicochemical; conditions: from solid: 10 mg lyophilized peptide in 1.0 mL water, sonicated 30 min at room temperature, centrifuged 5 min 13,000 rpm; UV at 301 nm (ε 7800 M^−1 cm^−1)
Description: Peptide solutions were prepared by dissolving 10 mg of each lyophilized peptide in 1.0 mL of water. These suspensions were sonicated for 30 min at room temperature; after centrifugation (5 min at 13,000 rpm), the concentration was spectroscopically determined on UV–Vis Thermo Fisher Scientific Inc. (Wilmington, DE, USA) NanoDrop 2000 c spectrophotometer equipped with a 1.0 cm quartz cuvette (Hellma). The quantification of the concentration was assessed using the molar absorptivity (ε) of 7800 M^−1 cm^−1 for Fmoc group at λ = 301 nm.
Due to their different sequence, each peptide has a different water solubility (see Table 2). […] The capability of peptides to self-assemble was initially checked by fluorescence spectroscopy, recording the emission spectra at the maximum concentration of the peptide. Peptides containing the FF motif were excited at both 257 and 301 nm, which corresponded to the excitation wavelength of phenyl and the Fmoc group, respectively, whereas peptides lacking FF were excited only at 301 nm. All the peptide derivatives, upon excitation at 301 nm, have an emission peak at 328 nm, red-shifted of 15 nm, with respect to the peak at 313 nm, which is expected for the monomeric form (see Figure S6).

3T3-L1 cells [3] = assay type: cell-based, mouse; conditions: for Cell adhesion (% of adherent viable cells on seeded cells): 16 h; for cell viability of adherent cells: 72 h
Description: (§1) Aneuploid immortal keratinocyte cell line HaCat and mouse pre-adipocyte cell line 3T3-L1 were obtained from IRCCS-SDN Biobank (10.5334/ojb.26) and grown in Dulbecco’s Modified Medium (DMEM) supplemented with 10% fetal bovine serum (FBS) and 1% GlutaMAX. Cells were incubated at 37 °C and 5% CO2 and seeded in 100 mm culture dishes.
For the adhesion test, 3T3-L1 cells were seeded in 96-well plates at a density of 0.5 ×10^4 cells per well. Before seeding, each well was filled with the indicated hydrogels; 16 h after seeding, cells were stained with Acridine Orange/Propidium Iodide stain. Cell adhesion was reported as % of adherent viable cell (fluorescing green) on total plated cells. Viability upon adhesion was reported as % viable cells and total adherent cells. Duplication rate was reported as the ratio between viable cells upon 48 h from seeding and the number of viable adherent cells upon 16 h from seeding. In order to test the toxicity of hydrogels conditioned media, we used MTS assay, (CellTiter 96® AQueous One Solution Cell Proliferation Assay, Promega, Italy). For MTS assays, HaCat and 3T3-L1 cells were seeded in 96-well plates at a density of 0.7 × 10^4 cells per well. To obtain the conditioned media, hydrogels formed in a hollow plastic chamber sealed at one end with a porous membrane, were incubated with 2 mL of completed DMEM medium for 16 h in sterile condition at RT [23]. No color change of the media was detected following the incubation and the tested pH value (7.5–7.8) was suitable for culturing added to the wells. The conditioned media were used to grow the cells for 24, 48, and 72 h. At the end of the treatment, cell viability was assessed by the MTS assay. In brief, MTS was added to the cells at a final concentration of 0.5 mg/mL. After 30 min of incubation at 37 °C, the samples were analyzed using the VICTOR Nivo (Perkin Elmer, Buckinghamshire, UK) at 490 nm absorbance. Cell survival was expressed as percentage of viable cells in the presence of hydrogels, compared to control cells grown in their absence. MTS assay was repeated twice with similar results.
To test the ability of the three hydrogels to support in vitro growth of eukaryotic cells, we culture 3T3-L1 (mouse fibroblast) cells on Fmoc-K1, K2, and K3. As first, we measured the number of cells able to adhere to hydrogels. An efficient cell adhesion is necessary for an optimal growth of the culture, and growth-supports un-favoring cell adhesion cause cell cycle arrest and induce apoptosis. […] Compared to cells plated in the absence of hydrogels, Fmoc-K1 and Fmoc-K2 disfavored cell adhesion, allowing cell attachment to 20 ± 3%, 36 ± 8% of the seeded cells, respectively.

3T3-L1 cells [4] = assay type: cell-based, mouse; conditions: 24 h
Description: as §1
For the adhesion test, 3T3-L1 cells were seeded in 96-well plates at a density of 0.5 ×10^4 cells per well. Before seeding, each well was filled with the indicated hydrogels; 16 h after seeding, cells were stained with Acridine Orange/Propidium Iodide stain. Cell adhesion was reported as % of adherent viable cell (fluorescing green) on total plated cells. Viability upon adhesion was reported as % viable cells and total adherent cells. […] No color change of the media was detected following the incubation and the tested pH value (7.5–7.8) was suitable for culturing added to the wells. […] At the end of the treatment, cell viability was assessed by the MTS assay. […] After 30 min of incubation at 37 °C, the samples were analyzed using the VICTOR Nivo (Perkin Elmer, Buckinghamshire, UK) at 490 nm absorbance. Cell survival was expressed as percentage of viable cells in the presence of hydrogels, compared to control cells grown in their absence. […]

[5] = cited from earlier work
Excerpt: Hydrogels are matrices able to absorb water and swell in the media without dissolving. The calculated degree of swelling (q) was 55.2%, 56.6%, and 54.3% for Fmoc-K1, Fmoc-K2, and Fmoc-K3, respectively.

CC[C@H](C)[C@H](NC(=O)OCC1c2ccccc2-c2ccccc21)C(=O)N[C@@H](CC(C)C)C(=O)N[C@H](C(=O)N[C@@H](C)C(=O)NCC(=O)N[C@@H](CCCCN)C(N)=O)C(C)C [Fmoc-K1] (Fmoc-ILVAGK-NH2)
weight loss ratio ΔW (stability) [1]: 43.2%
solubility thermodynamic at 30 min [2]: 1240 µg/mL (≈ 1510 µM)
cell death of the attached cells (3T3-L1 cells [3]): 9 ± 3%
Cell adhesion (% of adherent viable cells on seeded cells) (3T3-L1 cells [3]): 20 ± 3%
cell viability of adherent cells (3T3-L1 cells [3]): 92 ± 3%
viability (cell survival vs control) (3T3-L1 cells [4]): above 70%

CC[C@H](C)[C@H](NC(=O)[C@H](CC(C)C)NC(=O)OCC1c2ccccc2-c2ccccc21)C(=O)N[C@H](C(=O)N[C@@H](C)C(=O)NCC(=O)N[C@@H](CCCCN)C(N)=O)C(C)C [Fmoc-K2] (Fmoc-LIVAGK-NH2)
weight loss ratio ΔW (stability) [1]: 39.7%
solubility thermodynamic at 30 min [2]: 2560 µg/mL (≈ 3120 µM)
cell death of the attached cells (3T3-L1 cells [3]): 11 ± 2%
Cell adhesion (% of adherent viable cells on seeded cells) (3T3-L1 cells [3]): 36 ± 8%
cell viability of adherent cells (3T3-L1 cells [3]): 95 ± 3%

CC[C@H](C)[C@H](NC(=O)[C@H](C)NC(=O)OCC1c2ccccc2-c2ccccc21)C(=O)N[C@H](C(=O)N[C@@H](C)C(=O)NCC(=O)N[C@@H](CCCCN)C(N)=O)C(C)C [Fmoc-K3] (Fmoc-AIVAGK-NH2)
weight loss ratio ΔW (stability) [1]: 41.8%
solubility thermodynamic at 30 min [2]: 3210 µg/mL (≈ 4120 µM)
cell death of the attached cells (3T3-L1 cells [3]): 3 ± 1%
Cell adhesion (% of adherent viable cells on seeded cells) (3T3-L1 cells [3]): 85 ± 12%
cell viability of adherent cells (3T3-L1 cells [3]): 94 ± 3%

CC[C@H](C)[C@H](NC(=O)[C@H](Cc1ccccc1)NC(=O)[C@H](Cc1ccccc1)NC(=O)OCC1c2ccccc2-c2ccccc21)C(=O)N[C@@H](CC(C)C)C(=O)N[C@H](C(=O)N[C@@H](C)C(=O)NCC(=O)N[C@@H](CCCCN)C(N)=O)C(C)C [FmocFF-K1] (Fmoc-FFILVAGK-NH2)
solubility thermodynamic at 30 min [2]: 508 µg/mL (≈ 455 µM)

CC[C@H](C)[C@H](NC(=O)[C@H](CC(C)C)NC(=O)[C@H](Cc1ccccc1)NC(=O)[C@H](Cc1ccccc1)NC(=O)OCC1c2ccccc2-c2ccccc21)C(=O)N[C@H](C(=O)N[C@@H](C)C(=O)NCC(=O)N[C@@H](CCCCN)C(N)=O)C(C)C [FmocFF-K2] (Fmoc-FFLIVAGK-NH2)
solubility thermodynamic at 30 min [2]: 253 µg/mL (≈ 227 µM)

CC[C@H](C)[C@H](NC(=O)[C@H](C)NC(=O)[C@H](Cc1ccccc1)NC(=O)[C@H](Cc1ccccc1)NC(=O)OCC1c2ccccc2-c2ccccc21)C(=O)N[C@H](C(=O)N[C@@H](C)C(=O)NCC(=O)N[C@@H](CCCCN)C(N)=O)C(C)C [FmocFF-K3] (Fmoc-FFAIVAGK-NH2)
solubility thermodynamic at 30 min [2]: 345 µg/mL (≈ 321 µM)

Fmoc-diphenylalanine [FmocFF]
swelling degree [5]: around 40%
